Experimental data reported in ChEMBL document CHEMBL4038264, “Nabscessins A and B, Aminocyclitol Derivatives from Nocardia abscessus IFM 10029T” (J Nat Prod, 2017).
Converted amounts (≈) assume the structure as drawn. *1 amine or outer side, *2 acyl side, *3 side chain or, on linkers, in order; H or OH if unused. Where a SMILES comes first, the peptide text is derived from it. Bridges are numbered along the chain shown (N, C = ends). [ ]: non-standard residue; d: D form. The star is where a group is joined. hTyr(3S-OH,4S-OH,3'-OSO3H) = N[C@H](C(=O)O)[C@H](O)[C@@H](O)c1ccc(O)c(OS(=O)(=O)O)c1; Orn(4R-OH,5R-OH) = O=C([C@H](C[C@@H](O)[C@@H](O)N[*:3])N[*:1])[*:2]; Pro(3S-OH,4S-Me) = C[C@H]1CN[C@H](C(=O)O)[C@H]1O; X1 = CCCCCOc1ccc(-c2cc(-c3ccc(C(=O)*)cc3)no2)cc1; Gln(3R-OH) = NC(=O)C[C@@H](O)[C@H](N)C(=O)O; Hyp = O=C(O)[C@@H]1C[C@@H](O)CN1

How the values were obtained:
Format in all cases: functional
Cryptococcus neoformans = assay: Antifungal activity against Cryptococcus neoformans after 96 hrs by broth micro-dilution method
Escherichia coli = assay: Antibacterial activity against Escherichia coli after 48 hrs by broth micro-dilution method
Staphylococcus aureus = assay: Antibacterial activity against Staphylococcus aureus after 48 hrs by broth micro-dilution method
Bacillus subtilis = assay: Antibacterial activity against Bacillus subtilis after 48 hrs by broth micro-dilution method
Micrococcus luteus = assay: Antibacterial activity against Micrococcus luteus after 48 hrs by broth micro-dilution method
Aspergillus niger = assay: Antifungal activity against Aspergillus niger after 96 hrs by broth micro-dilution method
Candida albicans = assay: Antifungal activity against Candida albicans after 48 hrs by broth micro-dilution method
[1] = tested on: Trichophyton mentagrophytes; assay: Antifungal activity against Trichophyton mentagrophytes after 96 hrs by broth micro-dilution method

Structure (SMILES) | IC50 (Cryptococcus neoformans) | MIC (Escherichia coli) | MIC (Staphylococcus aureus) | MIC (Bacillus subtilis) | MIC (Micrococcus luteus) | IC50 (Aspergillus niger) | IC50 (Candida albicans) | IC50 [1]
CN[C@H]1C[C@@H](N)[C@H](O)[C@@H](O[C@@H]2O[C@H](CO)[C@H](O)[C@@H]3O[C@@]4(O[C@H]23)O[C@H]([C@@H](N)CO)[C@H](O)[C@H](O)[C@H]4O)[C@@H]1O | 3.9 µg/mL (≈ 7.39 µM) | 2 µg/mL (≈ 3.79 µM) | 0.5 µg/mL (≈ 0.948 µM) | 2 µg/mL (≈ 3.79 µM) | 1 µg/mL (≈ 1.9 µM) | 1 µg/mL (≈ 1.9 µM) | 3.9 µg/mL (≈ 7.39 µM) | 1 µg/mL (≈ 1.9 µM)
NC[C@H]1O[C@H](O[C@H]2[C@H](O)[C@@H](O[C@H]3O[C@H](CO)[C@@H](O)[C@H](N)[C@H]3O)[C@H](N)C[C@@H]2N)[C@H](O)[C@@H](O)[C@@H]1O [KANAMYCIN] | 7.8 µg/mL (≈ 16.1 µM) | < 0.1 µg/mL | < 0.1 µg/mL | < 0.1 µg/mL | 1 µg/mL (≈ 2.06 µM) | 31.3 µg/mL (≈ 64.6 µM) | > 62.5 µg/mL | 7.8 µg/mL (≈ 16.1 µM)
CCCCCOc1ccc(-c2cc(-c3ccc(C(=O)N[C@H]4C[C@@H](O)[C@@H](O)NC(=O)[C@@H]5[C@@H](O)[C@@H](C)CN5C(=O)[C@H]([C@H](O)CC(N)=O)NC(=O)[C@H]([C@H](O)[C@@H](O)c5ccc(O)c(OS(=O)(=O)O)c5)NC(=O)[C@@H]5C[C@@H](O)CN5C(=O)[C@H]([C@@H](C)O)NC4=O)cc3)no2)cc1 [MICAFUNGIN] (X1-[Orn(4R-OH,5R-OH)]T[Hyp][hTyr(3S-OH,4S-OH,3'-OSO3H)][Gln(3R-OH)][Pro(3S-OH,4S-Me)]; lactam 1-C) | < 0.1 µg/mL | > 62.5 µg/mL | 0.5 µg/mL (≈ 0.394 µM) | 0.5 µg/mL (≈ 0.394 µM) | 7.8 µg/mL (≈ 6.14 µM) | < 0.1 µg/mL | < 0.1 µg/mL | < 0.1 µg/mL

Other lines, results leading:

IC50 (Cryptococcus neoformans) | MIC (Escherichia coli) | MIC (Staphylococcus aureus) | MIC (Bacillus subtilis) | MIC (Micrococcus luteus) | IC50 (Aspergillus niger) | IC50 (Candida albicans) | IC50 [1] | Structure (SMILES)
< 0.05 µg/mL | > 31.2 µg/mL | > 31.2 µg/mL | > 31.2 µg/mL | > 31.2 µg/mL | 1.8 µg/mL (≈ 1.95 µM) | 1 µg/mL (≈ 1.08 µM) | 3.9 µg/mL (≈ 4.22 µM) | C[C@@H]1[C@H](O)[C@@H](C)/C=C/C=C/C=C/C=C/C=C/C=C/C=C/[C@H](O[C@@H]2O[C@H](C)[C@@H](O)[C@H](N)[C@@H]2O)C[C@@H]2O[C@](O)(C[C@@H](O)C[C@@H](O)[C@H](O)CC[C@@H](O)C[C@@H](O)CC(=O)O[C@H]1C)C[C@H](O)[C@H]2C(=O)O [AMPHOTERICIN B]
32 µg/mL (≈ 69.5 µM) | > 32 µg/mL | > 32 µg/mL | > 32 µg/mL | > 32 µg/mL | > 32 µg/mL | > 32 µg/mL | > 32 µg/mL | Cc1cccc(O)c1C(=O)O[C@@H]1[C@@H](O)[C@H](O)[C@@H](NC(=O)c2cccc(O)c2)C[C@H]1OC(N)=O
16 µg/mL (≈ 34.7 µM) | > 32 µg/mL | > 32 µg/mL | > 32 µg/mL | > 32 µg/mL | > 32 µg/mL | > 32 µg/mL | > 32 µg/mL | Cc1cccc(O)c1C(=O)O[C@H]1[C@H](O)[C@@H](O)[C@H](OC(N)=O)C[C@@H]1NC(=O)c1cccc(O)c1
